Assay results published in PubChem BioAssay (NCI).
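48-hour exposure; five concentrations; linearly interpolated endpoints. Abbreviation: GI50, concentration required for 50% inhibition of growth. TGI is the concentration that stops growth completely.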

How the values were obtained:
Assay in all cases: inhibition of tumour cell growth, NCI panel, 48 h
OVCAR-4 ovarian = system: OVCAR-4 ovarian
SK-MEL-2 melanoma = system: SK-MEL-2 melanoma
SNB-75 CNS = system: SNB-75 CNS
NCI-H522 lung = system: NCI-H522 lung
DU-145 prostate = system: DU-145 prostate
OVCAR-3 ovarian = system: OVCAR-3 ovarian
SF-268 CNS = system: SF-268 CNS
SK-MEL-5 melanoma = system: SK-MEL-5 melanoma
MOLT-4 leukemia = system: MOLT-4 leukemia
A549 NSCLC = system: A549 NSCLC
HOP-92 NSCLC = system: HOP-92 NSCLC
EKVX NSCLC = system: EKVX NSCLC
OVCAR-8 ovarian = system: OVCAR-8 ovarian
COLO 205 colon = system: COLO 205 colon
U251 CNS = system: U251 CNS
KM12 colon = system: KM12 colon
RXF 393 renal = system: RXF 393 renal
A498 renal = system: A498 renal
786-0 renal = system: 786-0 renal
MDA-MB-435 = system: MDA-MB-435
MDA-MB-231 breast = system: MDA-MB-231 breast
SN12C renal = system: SN12C renal
K-562 leukemia = system: K-562 leukemia
MALME-3M melanoma = system: MALME-3M melanoma
T-47D breast = system: T-47D breast
M14 melanoma = system: M14 melanoma
PC-3 prostate = system: PC-3 prostate
HT29 colon = system: HT29 colon
SF-295 CNS = system: SF-295 CNS
HL-60(TB) leukemia = system: HL-60(TB) leukemia
HOP-62 NSCLC = system: HOP-62 NSCLC
UACC-62 melanoma = system: UACC-62 melanoma
SF-539 CNS = system: SF-539 CNS
HCT-15 colon = system: HCT-15 colon
SNB-19 CNS = system: SNB-19 CNS
OVCAR-5 ovarian = system: OVCAR-5 ovarian
SW-620 colon = system: SW-620 colon
CCRF-CEM leukemia = system: CCRF-CEM leukemia
ACHN renal = system: ACHN renal
MCF7 breast = system: MCF7 breast
UACC-257 melanoma = system: UACC-257 melanoma
UO-31 renal = system: UO-31 renal
IGROV1 ovarian = system: IGROV1 ovarian
HCT-116 colon = system: HCT-116 colon
SK-OV-3 ovarian = system: SK-OV-3 ovarian
HS 578T breast = system: HS 578T breast
CAKI-1 renal = system: CAKI-1 renal
BT-549 breast = system: BT-549 breast
LOX IMVI melanoma = system: LOX IMVI melanoma
NCI/ADR-RES ovarian = system: NCI/ADR-RES ovarian
NCI-H460 lung = system: NCI-H460 lung
HCC-2998 colon = system: HCC-2998 colon
NCI-H23 lung = system: NCI-H23 lung
SK-MEL-28 melanoma = system: SK-MEL-28 melanoma
NCI-H226 lung = system: NCI-H226 lung
RPMI-8226 leukemia = system: RPMI-8226 leukemia
TK-10 renal = system: TK-10 renal

Structure (SMILES): CN1C(=O)C(O)CC1c1cccc(C(F)(F)F)c1 (stereo unspecified)
- TGI (OVCAR-4 ovarian): > 100 µM
- TGI (SK-MEL-2 melanoma): > 100 µM
- TGI (SNB-75 CNS): > 100 µM
- TGI (NCI-H522 lung): > 100 µM
- TGI (DU-145 prostate): > 100 µM
- TGI (OVCAR-3 ovarian): > 100 µM
- TGI (SF-268 CNS): > 100 µM
- TGI (SK-MEL-5 melanoma): > 100 µM
- TGI (MOLT-4 leukemia): > 100 µM
- TGI (A549 NSCLC): > 100 µM
- TGI (HOP-92 NSCLC): > 100 µM
- TGI (EKVX NSCLC): > 100 µM
- TGI (OVCAR-8 ovarian): > 100 µM
- TGI (COLO 205 colon): > 100 µM
- TGI (U251 CNS): > 100 µM
- TGI (KM12 colon): > 100 µM
- TGI (RXF 393 renal): > 100 µM
- TGI (A498 renal): > 100 µM
- TGI (786-0 renal): > 100 µM
- TGI (MDA-MB-435): > 100 µM
- TGI (MDA-MB-231 breast): > 100 µM
- TGI (SN12C renal): > 100 µM
- TGI (K-562 leukemia): > 100 µM
- TGI (MALME-3M melanoma): > 100 µM
- TGI (T-47D breast): > 100 µM
- TGI (M14 melanoma): > 100 µM
- TGI (PC-3 prostate): > 100 µM
- TGI (HT29 colon): > 100 µM
- TGI (SF-295 CNS): > 100 µM
- TGI (HL-60(TB) leukemia): > 100 µM
- TGI (HOP-62 NSCLC): > 100 µM
- TGI (UACC-62 melanoma): > 100 µM
- TGI (SF-539 CNS): > 100 µM
- TGI (HCT-15 colon): > 100 µM
- TGI (SNB-19 CNS): > 100 µM
- TGI (OVCAR-5 ovarian): > 100 µM
- TGI (SW-620 colon): > 100 µM
- TGI (CCRF-CEM leukemia): > 100 µM
- TGI (ACHN renal): > 100 µM
- TGI (MCF7 breast): > 100 µM
- TGI (UACC-257 melanoma): > 100 µM
- TGI (UO-31 renal): > 100 µM
- TGI (IGROV1 ovarian): > 100 µM
- TGI (HCT-116 colon): > 100 µM
- TGI (SK-OV-3 ovarian): > 100 µM
- TGI (HS 578T breast): > 100 µM
- TGI (CAKI-1 renal): > 100 µM
- TGI (BT-549 breast): > 100 µM
- TGI (LOX IMVI melanoma): > 100 µM
- TGI (NCI/ADR-RES ovarian): > 100 µM
- TGI (NCI-H460 lung): > 100 µM
- TGI (HCC-2998 colon): > 100 µM
- TGI (NCI-H23 lung): > 100 µM
- TGI (SK-MEL-28 melanoma): > 100 µM
- TGI (NCI-H226 lung): > 100 µM
- TGI (RPMI-8226 leukemia): > 100 µM
- TGI (TK-10 renal): > 100 µM

Structure (SMILES): Nc1ccc2c(c1)c(N)nn2C(=O)Nc1ccc(Cc2ccccc2)cc1
- GI50 (OVCAR-4 ovarian): 8.29 µM
- TGI (OVCAR-4 ovarian): 24.1 µM
- GI50 (SK-MEL-2 melanoma): 26.1 µM
- TGI (SK-MEL-2 melanoma): 48.5 µM
- GI50 (SNB-75 CNS): 17.4 µM
- TGI (SNB-75 CNS): 31.5 µM
- GI50 (NCI-H522 lung): 14.7 µM
- TGI (NCI-H522 lung): 39.6 µM
- GI50 (DU-145 prostate): 10.9 µM
- TGI (DU-145 prostate): 24 µM
- GI50 (OVCAR-3 ovarian): 12.1 µM
- TGI (OVCAR-3 ovarian): 28.3 µM
- GI50 (SF-268 CNS): 13 µM
- TGI (SF-268 CNS): 30.7 µM
- GI50 (SK-MEL-5 melanoma): 6.52 µM
- TGI (SK-MEL-5 melanoma): 19.8 µM
- GI50 (MOLT-4 leukemia): 4.48 µM
- TGI (MOLT-4 leukemia): 24.3 µM
- GI50 (A549 NSCLC): 6.58 µM
- TGI (A549 NSCLC): 57.1 µM
- GI50 (HOP-92 NSCLC): 10.4 µM
- TGI (HOP-92 NSCLC): 24.4 µM
- GI50 (EKVX NSCLC): 14 µM
- TGI (EKVX NSCLC): 36.7 µM
- GI50 (OVCAR-8 ovarian): 20.2 µM
- TGI (OVCAR-8 ovarian): > 100 µM
- GI50 (COLO 205 colon): 13.1 µM
- TGI (COLO 205 colon): 26.5 µM
- GI50 (U251 CNS): 6.53 µM
- TGI (U251 CNS): 20.9 µM
- GI50 (KM12 colon): 3.34 µM
- TGI (KM12 colon): 15.1 µM
- GI50 (RXF 393 renal): 21.4 µM
- TGI (RXF 393 renal): 43.9 µM
- GI50 (A498 renal): 14.4 µM
- TGI (A498 renal): 28.4 µM
- GI50 (786-0 renal): 12.4 µM
- TGI (786-0 renal): 25.9 µM
- GI50 (MDA-MB-435): 7.36 µM
- TGI (MDA-MB-435): 23.8 µM
- GI50 (MDA-MB-231 breast): 7.74 µM
- TGI (MDA-MB-231 breast): 22.7 µM
- GI50 (SN12C renal): 13.4 µM
- TGI (SN12C renal): 30.9 µM
- GI50 (K-562 leukemia): 2.24 µM
- TGI (K-562 leukemia): 11.4 µM
- GI50 (MALME-3M melanoma): 18 µM
- TGI (MALME-3M melanoma): 89.8 µM
- GI50 (T-47D breast): 5.8 µM
- TGI (T-47D breast): 22.8 µM
- GI50 (M14 melanoma): 4.59 µM
- TGI (M14 melanoma): 17.8 µM
- GI50 (PC-3 prostate): 4.33 µM
- TGI (PC-3 prostate): 24 µM
- GI50 (HT29 colon): 4.51 µM
- TGI (HT29 colon): 17.2 µM
- GI50 (SF-295 CNS): 3.96 µM
- TGI (SF-295 CNS): 15.1 µM
- GI50 (HL-60(TB) leukemia): 3.46 µM
- TGI (HL-60(TB) leukemia): 17.2 µM
- GI50 (HOP-62 NSCLC): 11.2 µM
- TGI (HOP-62 NSCLC): 27 µM
- GI50 (UACC-62 melanoma): 2.9 µM
- TGI (UACC-62 melanoma): 12.6 µM
- GI50 (SF-539 CNS): 8.7 µM
- TGI (SF-539 CNS): 22.1 µM
- GI50 (HCT-15 colon): 2.75 µM
- TGI (HCT-15 colon): 14.2 µM
- GI50 (SNB-19 CNS): 13.9 µM
- TGI (SNB-19 CNS): 27.3 µM
- GI50 (OVCAR-5 ovarian): 22.6 µM
- TGI (OVCAR-5 ovarian): 60.5 µM
- GI50 (SW-620 colon): 4.48 µM
- TGI (SW-620 colon): 18.7 µM
- GI50 (CCRF-CEM leukemia): 2.07 µM
- TGI (CCRF-CEM leukemia): 18.8 µM
- GI50 (ACHN renal): 3.37 µM
- TGI (ACHN renal): 13.7 µM
- GI50 (MCF7 breast): 6.92 µM
- TGI (MCF7 breast): 26.5 µM
- GI50 (UACC-257 melanoma): 14.5 µM
- TGI (UACC-257 melanoma): 29.7 µM
- GI50 (UO-31 renal): 4.72 µM
- TGI (UO-31 renal): 32.6 µM
- GI50 (IGROV1 ovarian): 16.4 µM
- TGI (IGROV1 ovarian): 54.1 µM
- GI50 (HCT-116 colon): 6.79 µM
- TGI (HCT-116 colon): 20.8 µM
- GI50 (SK-OV-3 ovarian): 15.3 µM
- TGI (SK-OV-3 ovarian): 37.7 µM
- GI50 (HS 578T breast): 17.3 µM
- TGI (HS 578T breast): 43 µM
- GI50 (CAKI-1 renal): 4.3 µM
- TGI (CAKI-1 renal): 26.8 µM
- GI50 (BT-549 breast): 14.6 µM
- TGI (BT-549 breast): 33.5 µM
- GI50 (LOX IMVI melanoma): 3.38 µM
- TGI (LOX IMVI melanoma): 16 µM
- GI50 (NCI/ADR-RES ovarian): 17.4 µM
- TGI (NCI/ADR-RES ovarian): 75.1 µM
- GI50 (NCI-H460 lung): 4.64 µM
- TGI (NCI-H460 lung): 23.8 µM
- GI50 (HCC-2998 colon): 4.17 µM
- TGI (HCC-2998 colon): 14.8 µM
- GI50 (NCI-H23 lung): 16.9 µM
- TGI (NCI-H23 lung): 39.5 µM
- GI50 (SK-MEL-28 melanoma): 13.7 µM
- TGI (SK-MEL-28 melanoma): 27.8 µM
- GI50 (NCI-H226 lung): 16.1 µM
- TGI (NCI-H226 lung): 38.3 µM
- GI50 (RPMI-8226 leukemia): 5.14 µM
- TGI (RPMI-8226 leukemia): 35 µM
- GI50 (TK-10 renal): 19.4 µM
- TGI (TK-10 renal): 46 µM
